{"source": "patent US20240415791A1", "about": "“Therapeutic methods and compositions for treating cancer using devimistat and a fatty acid oxidation inhibitor, a tyrosine kinase inhibitor, a glutaminase inhibitor, and/or a glycolysis inhibitor” (Cornerstone Pharmaceuticals, Inc., priority 2021, published 2024)", "key": {"[1]": {"test_system": "human H460 NSCLC xenografts", "assay": "Oral devimistat in H460 NSCLC xenografts", "type": "in vivo, mice", "conditions": "oral 100 mg/kg on days 8, 15, 22, 29; vs 5% dextrose or untreated", "method": "Human H460 NSCLC cells were obtained from American Type Cell Culture (ATCC) (catalog no. HTB-177, Manassas, VA). These cells tested negative for viral contamination using the Mouse Antibody Production (MAP) test, performed by Charles River Labs Molecular Division, upon the receipt of the tumor cells from ATCC. The tumor cells were maintained at 37° C. in a humidified 5% CO2 atmosphere in T225 tissue culture flasks containing 50 mL of Roswell Park Memorial Institute (RPMI)-1640 solution with 10% Fetal Bovine Serum (FBS) and 2 mM L-glutamine. Cells were split at a ratio of 1:10 every 2-3 days by trypsinization and resuspended in fresh medium in a new flask. Cells were harvested for experiments in the same way at 70-90% confluency.\nCD1-Nu/Nu female mice, ˜4-6 weeks old were obtained from Charles River Laboratories. Mice were housed 5 to a cage in a micro-isolator room in the Department of Animal Laboratory Research of New York State University (SUNY) at Stony Brook. Light-dark cycles were 12 h each daily, with light from 7 a.m. to 7 p.m. […]\nAn acclimation period of 7 days was allowed between the arrival of the animal at the study site before tumor inoculation and experimentation. […] Tumor dimensions (length and width) were measured daily before, during and after treatment (using Vernier calipers) and the tumor volume was calculated using the prolate ellipsoid formula: (length×width^2)/2. […]"}, "[2]": {"assay": "Oral bioavailability / plasma pharmacokinetics of devimistat formulations in mice", "parameters": "species or system BALB/c nude mice", "conditions": "mouse, in vivo", "method": "[…]; 5 mL/kg; Ex. 7A); (2) 5 μL/g IP injection of the triethanolamine/dextrose aqueous solution of Example 7 (25 mg/kg; 5 mL/kg; 7A); (3) 5 μL/g oral administration of the Eudragit L100 SDD suspension of Example 7 (100 mg/kg; 5 mL/kg; 7B); (4) 5 μL/g oral administration of the HPMCAS-M SDD suspension of Example 7 (100 mg/kg; 5 mL/kg; 7C); (5) 5 μL/g oral administration of the 20 mg/mL devimistat suspension of Example 7 (100 mg/kg; 5 mL/kg; 7D); or (6) 10 μL/g oral administration of the 10 mg/mL SOLUTOL solution of Example 7 (100 mg/kg; 10 mL/kg; 7E). In each experiment, about 80 μL of blood was collected from one subgroup of 4 male and 4 female mice at 0.083, 1, 4, and 24 hours after dosing, and from the other subgroup of 4 male and 4 female mice at 0.5, 2, and 8 hours. Plasma from the collected blood samples was analyzed by LC-MS/MS for the presence of devimistat."}, "AsPC1 cells": {"test_system": "AsPC1 cells", "assay": "Devimistat-induced cell death (ATP after recovery) in AsPC1 cells", "type": "cell-based, human", "conditions": "exogenous nutrient-free conditions", "method": "Cells were plated at 80% confluency in complete RPMI in black, clear bottom 96-well plates or 35-mm dishes for ATP, protein and glycogen analysis, or glass coverslips for fluorescence visualization. […] Prior to drug treatment, cells were incubated in a nutrient-free carbonate buffered salt solution (CBS2) for 3 hours. Drug treatments were then carried out in CBS2 with addition of nutrient sources and/or chemical agents as described in the Examples and Figures.\nLOGIC: High throughput, plate reader assays for cell death essentially always ultimately depend on metabolic activity of cells to identify viability, directly or indirectly. Thus, strong inhibition of metabolic activity by anti-metabolism agents like those described herein can confound cell death analysis by such assays. […] The inventors thus used a recovery-based assay wherein cells are treated with anti-metabolic agents under conditions where mitochondrial metabolism is (or becomes) limiting on viability. After experimental treatment, drug and media are removed and cells are allowed to recover in serum-free RPMI. RPMI provides high levels of glucose in support of glycolytic ATP generation (independently of mitochondrial function), allowing viable cells to recover ATP levels that are ultimately measured in the plate assay to score cell viability.\nSurvival is assessed by conventional luminescence measurement of ATP levels after this recovery.\nTECHNICAL DETAILS: Immediately after drug treatments, acute ATP levels of cells in black, clear bottom 96-well plates were measured using the CellTiter-Glo® Luminescent Cell Viability Assay (catalog #G775B) following Promega (Madison, WI) protocols. […] After this recovery period ATP levels were measured using the CellTiter-Glo® Luminescent Cell Viability Assay as described above.\nSurvival is assessed by conventional luminescence measurement of ATP levels after this recovery. See the Methods section above for a detailed description of this assay and its validation."}, "BxPC-3 xenografts": {"test_system": "BxPC-3 xenografts", "assay": "Oral devimistat in BxPC3 pancreatic cancer xenografts", "type": "in vivo, mice", "conditions": "weekly for 4 weeks", "method": "An acclimation period of 7 days was allowed between the arrival of the animal at the study site before tumor inoculation and experimentation. Mice were inoculated subcutaneously (SC) in the right flank with 2×10^6 human H460 NSCLC or BxPC3 pancreatic cancer cells that were suspended in 0.1 mL of Dulbeco's Phosphate Buffered Salt (PBS) solution using a 1 cc syringe with a 27⅝ gauge needle. Tumor dimensions (length and width) were measured daily before, during and after treatment (using Vernier calipers) and the tumor volume was calculated using the prolate ellipsoid formula: (length×width^2)/2. Treatment with test or control articles began 8 days post tumor cell implantation when the tumor was approximately 300 mm^3.\nA similar study was conducted in CD-1 nude mice (n=9) inoculated with 2×10^6 BxPC-3 cells. The study was initiated when tumors reached an average size of 150 mm^3 (day 0) and devimistat was administered at an oral dose of […] for 4 weeks. A comparator arm (n=9) was conducted with IP treatment at a weekly dose of 25 mg/kg."}}}
{"smiles": "O=C(O)CCCCC(CCSCc1ccccc1)SCc1ccccc1", "note": "(stereo not shown) [devimistat, 6,8-bis(benzylsulfanyl)octanoic acid]", "values": [{"measurement": "tumor growth in H460 NSCLC xenografts", "setting": "[1]", "result": "grew much more slowly"}, {"measurement": "oral bioavailability (in words)", "setting": "[2]", "result": "orally bioavailable"}, {"measurement": "sensitivity of AsPC1 line to devimistat monotherapy", "setting": "AsPC1 cells", "result": "resistant to devimistat monotherapy"}, {"measurement": "tumor growth in BxPC3 xenografts", "setting": "BxPC-3 xenografts", "result": "especially pronounced"}]}
